Laboratory results as given in publication PMC4569415, “Pro-Oxidant Activity of Amine-Pyridine-Based Iron Complexes Efficiently Kills Cancer and Cancer Stem-Like Cells” (PLoS ONE, 2015).

System: JURKAT cells
Assay: ROS measurement with H2DCFDA
Assay type: cell-based, human
Settings: 10 μmol/L, 24 h
Method: Cellular ROS content was determined using the 2′,7′-dichlorodihydrofluorescein diacetate probe (H2DCFDA). Cells were seeded in 24-well plates (50 000 cells/well) in phenol red-free DMEM 24 h prior to treatments. Cells were treated with different concentrations of compound 1, 2 and 5 (2.5, 5 or 10 μmol/L) or vehicle alone as a control, for 5 or 24 hours at 37°C. In some experiments, cells were co-treated with the compounds plus 5 mmol/L NAC. After treatments, cells were washed with PBS and incubated with 1 μmol/L H2DCF-DA in PBS for 30 minutes in the dark. After washing, cells were collected with trypsin and analyzed by flow cytometry using a FACS-Calibur flow cytometer (Becton-Dickinson®, Immunofluorometry Systems, Mountain View, CA, USA). The geometric mean fluorescence intensity of 10 000 cells was established using CellQuestTM software (Becton Dickinson). The fluorescence fold-increase versus untreated cells was determined for each treatment.

Compound: CN(C)c1ccnc(CN2CCC[C@H]2[C@@H]2CCCN2Cc2cc(N(C)C)ccn2)c1 [Compound 2]
- ROS levels versus control cells: 1.94 folds
